Biological target: T1, Deoxyhypusine synthase (Plasmodium falciparum, UniProt Q9GSW0)
T1 sequence (Q9GSW0 whole entry): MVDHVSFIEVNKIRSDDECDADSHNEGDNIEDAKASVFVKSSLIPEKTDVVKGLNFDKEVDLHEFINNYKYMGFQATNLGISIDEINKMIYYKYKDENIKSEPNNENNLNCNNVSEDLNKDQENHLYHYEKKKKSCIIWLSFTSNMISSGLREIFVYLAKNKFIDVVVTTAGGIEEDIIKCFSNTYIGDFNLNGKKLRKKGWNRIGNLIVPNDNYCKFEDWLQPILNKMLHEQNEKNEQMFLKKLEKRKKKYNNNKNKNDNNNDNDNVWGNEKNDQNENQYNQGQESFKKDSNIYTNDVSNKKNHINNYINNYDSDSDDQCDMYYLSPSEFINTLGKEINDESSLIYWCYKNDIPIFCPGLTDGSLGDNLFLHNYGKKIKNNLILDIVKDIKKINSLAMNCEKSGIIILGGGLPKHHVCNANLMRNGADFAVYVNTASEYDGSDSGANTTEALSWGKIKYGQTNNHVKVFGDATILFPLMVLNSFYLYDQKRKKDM
Assay: Inhibition of recombinant deoxyhypusine synthase in Plasmodium falciparum NF54

Row | Ki [µM] | Structure (SMILES)
1 | 0.1 | N=C(N)NCCCCCCCN
2 | 50 | NCCCCCCCN
